Patent publication US11370847B2, “Single domain antibodies directed against intracellular antigens” (Singh Biotechnology, LLC, priority 2014, dated 2022)
Several values for one entry are separate records, joined by “and”; a condition that tells them apart may be missing. Equal entries are not always repeated. Where two headings read alike, the source gives them in different places.

Test system: MDA-MB-231 xenograft
Conditions: for Individual Tumor Measurements: listed as anti-STAT3 bacterial VHH13
[1] = Group 2, 1 mg/kg IP BID×14, day 20 (6/23/15)
[2] = Group 2, 1 mg/kg IP BID×14, day 23 (6/26/15)
[3] = Group 2, 1 mg/kg IP BID×14, day 26 (6/29/15)
[4] = Group 2, 1 mg/kg IP BID×14, day 29 (7/2/15)
[5] = Group 2, 1 mg/kg IP BID×14, day 33 (7/6/15)
[6] = Group 2, 1 mg/kg IP BID×14, day 36 (7/9/15)
[7] = Group 2, 1 mg/kg IP BID×14, day 42 (7/15/15)
[8] = Group 3, 2 mg/kg IP BID×14, day 20 (6/23/15)
[9] = Group 3, 2 mg/kg IP BID×14, day 23 (6/26/15)
[10] = Group 3, 2 mg/kg IP BID×14, day 26 (6/29/15)
[11] = Group 3, 2 mg/kg IP BID×14, day 29 (7/2/15)
[12] = Group 3, 2 mg/kg IP BID×14, day 33 (7/6/15)
[13] = Group 3, 2 mg/kg IP BID×14, day 36 (7/9/15)
[14] = Group 3, 2 mg/kg IP BID×14, day 42 (7/15/15)

anti-STAT3 VHH13: anti-STAT3 single-domain antibody, SEQ ID NO:3; bacterially produced, referred to as SBT-100
% mean tumor growth inhibition (500 μg/kg bw IP QD×14): 33.64% | mean tumor size (±SE) on day 14 of dosing (500 μg/kg bw IP QD×14): 118.86±15.94 | tumor doubling time (500 μg/kg bw IP QD×14, control 44.27 days): 61.06 days | % Inhibition Mean [1]: 10.34% | % Inhibition Median [1]: 18.61% | Tumor Mean Absolute [1]: 82.92 mm^3 | Tumor Median Absolute [1]: 80.66 mm^3 | Individual Tumor Measurements [1]: 73.15 mm^3 and 80.11 mm^3 and 97.22 mm^3 and 81.21 mm^3 | % Inhibition Mean [2]: 52.39% | % Inhibition Median [2]: 43.28% | Tumor Mean Absolute [2]: 66.17 mm^3 | Tumor Median Absolute [2]: 65.55 mm^3 | Individual Tumor Measurements [2]: 54.54 mm^3 and 76.56 mm^3 and 79.99 mm^3 and 53.58 mm^3 | % Inhibition Mean [3]: 60.52% | % Inhibition Median [3]: 50.54% | Tumor Mean Absolute [3]: 68.07 mm^3 | Tumor Median Absolute [3]: 68.80 mm^3 | Individual Tumor Measurements [3]: 59.17 mm^3 and 80.34 mm^3 and 78.44 mm^3 and 54.34 mm^3 | % Inhibition Mean [4]: 65.12% | % Inhibition Median [4]: 61.81% | Tumor Mean Absolute [4]: 68.32 mm^3 | Tumor Median Absolute [4]: 63.66 mm^3 | Individual Tumor Measurements [4]: 57.21 mm^3 and 88.75 mm^3 and 59.90 mm^3 and 67.43 mm^3 | % Inhibition Mean [5]: 69.70% | % Inhibition Median [5]: 72.26% | Tumor Mean Absolute [5]: 67.12 mm^3 | Tumor Median Absolute [5]: 56.75 mm^3 | Individual Tumor Measurements [5]: 56.20 mm^3 and 99.09 mm^3 and 55.90 mm^3 and 57.30 mm^3 | % Inhibition Mean [6]: 78.28% | % Inhibition Median [6]: 79.75% | Tumor Mean Absolute [6]: 51.81 mm^3 | Tumor Median Absolute [6]: 45.40 mm^3 | Individual Tumor Measurements [6]: 37.13 mm^3 and 87.42 mm^3 and 53.66 mm^3 and 29.02 mm^3 | % Inhibition Mean [7]: 78.08% | % Inhibition Median [7]: 76.74% | Tumor Mean Absolute [7]: 55.98 mm^3 | Tumor Median Absolute [7]: 56.29 mm^3 | Individual Tumor Measurements [7]: 39.17 mm^3 and 72.18 mm^3 and 60.35 mm^3 and 52.23 mm^3 | growth delay (Group 2: 1 mg/kg bw IP BID×14): 13.99 days | mean growth inhibition (Group 2: 1 mg/kg bw IP BID×14): 78.3 | mean tumor size (±S.E.) at termination (day 42) (Group 2: 1 mg/kg bw IP BID×14): 55.98±6.94 | mean tumor size (±SE) at day 14 of dosing (Group 2: 1 mg/kg bw IP BID×14): 67.12±10.66 | % treatment/control (Group 2: 1 mg/kg bw IP BID×14, (tumor stasis)): −33.75% | tumor doubling time (Group 2: 1 mg/kg bw IP BID×14, control 20.56 days): 34.54 days | % Inhibition Mean [8]: 16.19% | % Inhibition Median [8]: 15.78% | Tumor Mean Absolute [8]: 77.52 mm^3 | Tumor Median Absolute [8]: 83.46 mm^3 | Individual Tumor Measurements [8]: 56.41 mm^3 and 84.06 mm^3 and 82.87 mm^3 and 86.73 mm^3 | % Inhibition Mean [9]: 59.06% | % Inhibition Median [9]: 57.27% | Tumor Mean Absolute [9]: 56.89 mm^3 | Tumor Median Absolute [9]: 49.39 mm^3 | Individual Tumor Measurements [9]: 43.61 mm^3 and 85.18 mm^3 and 54.78 mm^3 and 44.01 mm^3 | % Inhibition Mean [10]: 77.83% | % Inhibition Median [10]: 75.54% | Tumor Mean Absolute [10]: 38.22 mm^3 | Tumor Median Absolute [10]: 34.02 mm^3 | Individual Tumor Measurements [10]: 33.13 mm^3 and 61.75 mm^3 and 34.92 mm^3 and 23.09 mm^3 | % Inhibition Mean [11]: 76.54% | % Inhibition Median [11]: 74.17% | Tumor Mean Absolute [11]: 45.95 mm^3 | Tumor Median Absolute [11]: 43.07 mm^3 | Individual Tumor Measurements [11]: 31.76 mm^3 and 80.69 mm^3 and 54.38 mm^3 and 16.99 mm^3 | % Inhibition Mean [12]: 73.69% | % Inhibition Median [12]: 72.49% | Tumor Mean Absolute [12]: 58.27 mm^3 | Tumor Median Absolute [12]: 56.29 mm^3 | Individual Tumor Measurements [12]: 34.11 mm^3 and 110.72 mm^3 and 78.47 mm^3 and 9.78 mm^3 | % Inhibition Mean [13]: 75.18% | % Inhibition Median [13]: 71.22% | Tumor Mean Absolute [13]: 59.21 mm^3 | Tumor Median Absolute [13]: 64.51 mm^3 | Individual Tumor Measurements [13]: 50.33 mm^3 and 89.11 mm^3 and 78.68 mm^3 and 18.71 mm^3 | % Inhibition Mean [14]: 83.89% | % Inhibition Median [14]: 85.17% | Tumor Mean Absolute [14]: 41.15 mm^3 | Tumor Median Absolute [14]: 35.89 mm^3 | Individual Tumor Measurements [14]: 18.94 mm^3 and 73.89 mm^3 and 51.30 mm^3 and 20.48 mm^3 | growth delay (Group 3: 2 mg/kg bw IP BID×14): 9.52 days | mean growth inhibition (Group 3: 2 mg/kg bw IP BID×14): 75.2
